Results published in PubChem BioAssay (NCI).
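Five compound concentrations were applied to cells in 96-well plates for 48 hours; endpoints were derived by simple linear interpolation of the resulting dose-response curve. Abbreviation: GI50, concentration required for 50% inhibition of growth. TGI marks complete inhibition of growth.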

What was measured:
Assay in all cases: DTP human tumour cell line panel, 48 h
[1] = tested on: EKVX NSCLC
[2] = tested on: HCT-15 colon
[3] = tested on: PC-3 prostate
[4] = tested on: K-562 leukemia
[5] = tested on: A498 renal
[6] = tested on: SNB-75 CNS
[7] = tested on: OVCAR-4 ovarian
[8] = tested on: OVCAR-3 ovarian
[9] = tested on: DU-145 prostate
[10] = tested on: COLO 205 colon
[11] = tested on: NCI-H23 lung
[12] = tested on: SN12C renal
[13] = tested on: NCI-H460 lung
[14] = tested on: TK-10 renal
[15] = tested on: HOP-92 NSCLC
[16] = tested on: BT-549 breast
[17] = tested on: M14 melanoma
[18] = tested on: SK-MEL-5 melanoma
[19] = tested on: NCI/ADR-RES ovarian
[20] = tested on: ACHN renal
[21] = tested on: MOLT-4 leukemia
[22] = tested on: 786-0 renal
[23] = tested on: SK-MEL-2 melanoma
[24] = tested on: MDA-MB-231 breast
[25] = tested on: SNB-19 CNS
[26] = tested on: U251 CNS
[27] = tested on: SF-295 CNS
[28] = tested on: MALME-3M melanoma

Structure (SMILES): Cc1nc(N)sc1-c1csc(Nc2ccc(C(F)(F)F)cc2)n1
- GI50 [1]: 3.83 µM
- TGI [1]: 17.6 µM
- GI50 [2]: 3.02 µM
- TGI [2]: 11.9 µM
- GI50 [3]: 4.12 µM
- TGI [3]: 22.2 µM
- GI50 [4]: 3.27 µM
- TGI [4]: 31 µM
- GI50 [5]: 11.9 µM
- TGI [5]: 25.1 µM
- GI50 [6]: 3.41 µM
- TGI [6]: 16.9 µM
- GI50 [7]: 3.63 µM
- TGI [7]: 16.7 µM
- GI50 [8]: 4.41 µM
- TGI [8]: 17.3 µM
- GI50 [9]: 4.59 µM
- TGI [9]: 17.7 µM
- GI50 [10]: 11.9 µM
- TGI [10]: 36.9 µM
- GI50 [11]: 5.57 µM
- TGI [11]: 21.7 µM
- GI50 [12]: 6.72 µM
- TGI [12]: 21 µM
- GI50 [13]: 3.44 µM
- TGI [13]: 15.7 µM
- GI50 [14]: 8.73 µM
- TGI [14]: 21.4 µM
- GI50 [15]: 2.63 µM
- TGI [15]: 15 µM
- GI50 [16]: 2.03 µM
- TGI [16]: 6.75 µM
- GI50 [17]: 3.25 µM
- TGI [17]: 14.8 µM
- GI50 [18]: 3.32 µM
- TGI [18]: 11.9 µM
- GI50 [19]: 5.36 µM
- TGI [19]: 21 µM
- GI50 [20]: 2.75 µM
- TGI [20]: 13.9 µM
- GI50 [21]: 2.71 µM
- TGI [21]: 21.1 µM
- GI50 [22]: 4.41 µM
- TGI [22]: 17.5 µM
- GI50 [23]: 1.76 µM
- TGI [23]: 16.4 µM
- GI50 [24]: 3.45 µM
- TGI [24]: 17.5 µM
- GI50 [25]: 11.9 µM
- TGI [25]: 24.8 µM
- GI50 [26]: 7.17 µM
- TGI [26]: 26.2 µM
- GI50 [27]: 3.08 µM
- TGI [27]: 15.1 µM
- GI50 [28]: 4.11 µM
- TGI [28]: 17.6 µM
